Measured values as given in patent US12594252B2, “Methods for treating inflammatory skin conditions” (JOURNEY MEDICAL CORPORATION, priority 2018, dated 2026).

System: subjects diagnosed with papulopustular rosacea
Test: 16-week, multi-center, randomized, double-blind, parallel-group, controlled efficacy study
Type: in vivo, human
Conditions: minocycline about 40 mg, equivalent doses
Protocol: The pharmaceutical compositions as shown in Example 1 and 3 were studied in a 16-week, multi-center, randomized, double-blind, parallel-group, controlled study to evaluate efficacy. Subjects, who were at least 18 years old, diagnosed with papulopustular rosacea were randomized to 4 different treatment groups (50 subjects each in groups 1 to 4). Each subject was allocated to one of the treatment groups, receiving a single dose of Example 1 (Group 1) and Example 3 (Group 2): […]®-40 mg doxycycline capsules (Group 3); and placebo capsules (Group 4), orally for 16 weeks. Subjects' visits were scheduled at screening, baseline (day 1), and weeks 4, 8, 12 and 16. Clinical assessments of efficacy was conducted based on, proportion of subjects with IGA 'treatment success (reduction in IGA grade)' and reduction in total inflammatory lesion count (sum of papules, pustules, and nodules) from baseline (day 1) to weeks 4, 8, 12 and 16. The results are shown in following table 9 (IGA 'treatment success), table 10 (total inflammatory lesion change), table 11 (P values) and FIG. 6, FIG. 7, FIG. 8.

## CN(C)c1ccc(O)c2c1C[C@H]1C[C@H]3[C@H](N(C)C)C(O)=C(C(N)=O)C(=O)[C@@]3(O)C(O)=C1C2=O [minocycline, [4S-(4α,4aα,5aα,12aα)]-4,7-Bis(dimethylamino)-1,4,4a,5,5a,6,11,12a-octahydro-3,10,12,12a-tetrahydroxy-1,11-dioxo-2-naphthacenecarboxamide]
  % reduction in lesion counts, more as compared to doxycycline (40 mg): about 100%
